Values of other authors in PubChem BioAssay AID1259409 (Chemical Carcinogenesis Research Information System (CCRIS), 2018).

System: rodent chemically induced tumor inhibition, incidence and multiplicity
Assay: CCRIS tumor inhibitor studies

Question: What does the source list for CCO?
Answer: tumour outcome (control, treated, inhibition, significance) (Carcinogen: ETHYL CARBAMATE, 51-79-6, Dose [Inhibitor]: 0, 20% SIMULTANEOUSLY WITH CARCINOGEN 1/D FOR WK (STUDY DURATION: 16 WK), Route [Inhibitor]: GAVAGE, Species: MOUSE, Strain/Sex: NMRI/FEMALE, Target Tissue: Type of Lesion: LUNG: ADENOMA, Dose [Carcinogen]: 180 MG/KG IN 20% ETHANOL 1/D FOR 8 WK (CONTROL GROUP ADMINISTERED CARCINOGEN IN WATER), Promoter: NONE USED): 100%, 100%, 0%, not significant; tumour outcome (control, treated, inhibition, significance) (Carcinogen: ETHYL CARBAMATE, 57-79-6, Dose [Inhibitor]: 0, 12% ADMINISTERED WITH CARCINOGEN IN DRINKING WATER FOR 41 WK (STUDY DURATION: 41 WK), Route [Inhibitor]: ORAL, Species: MOUSE, Strain/Sex: C3H/MALE, Target Tissue: Type of Lesion: LIVER: HEMANGIOENDOTHELIOMA, Dose [Carcinogen]: 10 MG/KG IN DRINKING WATER FOR 41 WK, Promoter: NONE USED): 5%, 5%, 0%, not significant; tumour outcome (control, treated, inhibition, significance) (Carcinogen: N-METHYL-N'-NITRO-N-NITROSOGUANIDINE, 70-25-7, Dose [Inhibitor]: 0, 10% IN DRINKING WATER FOR 51 WK BEGINNING 1 WK POST CARCINOGEN DOSE, 5% NACL INCLUDED IN THE DIET OF TREATED RATS (ST, Route [Inhibitor]: ORAL, Species: RAT, Strain/Sex: F344/MALE, Target Tissue: Type of Lesion: FORESTOMACH: CARCINOMA IN SITU, Dose [Carcinogen]: 150 MG/KG BW ONCE, Promoter: CATECHOL, 120-89-9): 3/15 (20%), 5/14 (36%), -80%, not significant; tumour outcome (control, treated, inhibition, significance) (Carcinogen: N-METHYL-N'-NITRO-N-NITROSOGUANIDINE, 70-25-7, Dose [Inhibitor]: 0, 10% IN DRINKING WATER FOR 51 WK BEGINNING 1 WK POST CARCINOGEN DOSE, 5% NACL INCLUDED IN THE DIET OF TREATED RATS (ST, Route [Inhibitor]: ORAL, Species: RAT, Strain/Sex: F344/MALE, Target Tissue: Type of Lesion: FORESTOMACH: PAPILLOMA, Dose [Carcinogen]: 150 MG/KG BW ONCE, Promoter: CATECHOL, 120-80-9): 15/15 (100%), 12/14 (86%), 14%, not significant; tumour outcome (control, treated, inhibition, significance) (Carcinogen: N-METHYL-N'-NITRO-N-NITROSOGUANIDINE, 70-25-7, Dose [Inhibitor]: 0, 10% IN DRINKING WATER FOR 51 WK BEGINNING 1 WK POST CARCINOGEN DOSE, 5% NACL INCLUDED IN THE DIET OF TREATED RATS (ST, Route [Inhibitor]: ORAL, Species: RAT, Strain/Sex: F344/MALE, Target Tissue: Type of Lesion: FORESTOMACH: SQUAMOUS CELL CARCINOMA, Dose [Carcinogen]: 150 MG/KG BW ONCE, Promoter: CATECHOL, 120-80-9): 15/15 (100%), 8/14 (57%), 43%, p<0.01; tumour outcome (control, treated, inhibition, significance) (Carcinogen: N-METHYL-N'-NITRO-N-NITROSOGUANIDINE, 70-25-7, Dose [Inhibitor]: 0, 10% IN DRINKING WATER FOR 51 WK BEGINNING 1 WK POST CARCINOGEN DOSE, 5% NACL INCLUDED IN THE DIET OF TREATED RATS (ST, Route [Inhibitor]: ORAL, Species: RAT, Strain/Sex: F344/MALE, Target Tissue: Type of Lesion: GLANDULAR STOMACH: ADENOCARCINOMA, Dose [Carcinogen]: 150 MG/KG BW ONCE, Promoter: CATECHOL, 120-80-9): 11/15 (73%), 4/14 (29%), 60%, p<0.02; tumour outcome (control, treated, inhibition, significance) (Carcinogen: N-METHYL-N'-NITRO-N-NITROSOGUANIDINE, 70-25-7, Dose [Inhibitor]: 0, 10% IN DRINKING WATER FOR 51 WK BEGINNING 1 WK POST CARCINOGEN DOSE, 5% NACL INCLUDED IN THE DIET OF TREATED RATS (ST, Route [Inhibitor]: ORAL, Species: RAT, Strain/Sex: F344/MALE, Target Tissue: Type of Lesion: GLANDULAR STOMACH: ADENOMA, Dose [Carcinogen]: 150 MG/KG BW ONCE, Promoter: CATECHOL, 120-80-9): 15/15 (100%), 13/14 (93%), 7%, not significant; tumour outcome (control, treated, inhibition, significance) (Carcinogen: N-NITROSOMETHYLBENZYLAMINE, 937-40-6, Dose [Inhibitor]: 1-2% IN LIQUID DIET ON DAY 1 AND INCREASING TO 7% BY DAY 8 OF AGENT TREATMENT AND CONTINUING FOR 12 WK (STUDY DURATION:, Route [Inhibitor]: ORAL, Species: RAT, Strain/Sex: SPRAGUE-DAWLEY/MALE, Target Tissue: Type of Lesion: ESOPHAGUS: PAPILLOMA, Dose [Carcinogen]: 2.5 MG/KG 3/WK FOR 3 WK BEGINNING THE LAST 3 WK OF AGENT TREATMENT, Promoter: NONE USED): 10/26 (38%), 3/13 (23%), 39%, p<0.01; tumour outcome (control, treated, inhibition, significance) (Carcinogen: URETHANE, 51-79-6, Dose [Inhibitor]: 5% (VOL/VOL) IN DRINKING WATER CONCURRENTLY WITH CARCINOGEN FOR 12 WK (STUDY DURATION: 12 WK), Route [Inhibitor]: ORAL, Species: MOUSE, Strain/Sex: A/PH/FEMALE, Target Tissue: Type of Lesion: LUNG: ADENOMA, Dose [Carcinogen]: 200 PPM IN DRINKING WATER FOR 12 WK, Promoter: NONE USED): 100%, 100%, 0%, not calculated; tumour outcome (control, treated, inhibition, significance) (Carcinogen: URETHANE, 51-79-6, Dose [Inhibitor]: 5% (VOL/VOL) IN DRINKING WATER CONCURRENTLY WITH CARCINOGEN FOR 12 WK (STUDY DURATION: 12 WK), Route [Inhibitor]: ORAL, Species: MOUSE, Strain/Sex: A/PH/FEMALE, Target Tissue: Type of Lesion: LUNG: ADENOMA, Dose [Carcinogen]: 500 PPM IN DRINKING WATER FOR 12 WK, Promoter: NONE USED): 100%, 100%, 0%, not calculated; tumour outcome (control, treated, inhibition, significance) (Carcinogen: URETHANE, 51-79-6, Dose [Inhibitor]: 5% (VOL/VOL) IN DRINKING WATER CONCURRENTLY WITH CARCINOGEN FOR 12 WK (STUDY DURATION: 12 WK), Route [Inhibitor]: ORAL, Species: MOUSE, Strain/Sex: A/PH/FEMALE, Target Tissue: Type of Lesion: LUNG: ADENOMA, Dose [Carcinogen]: 1000 PPM IN DRINKING WATER FOR 12 WK, Promoter: NONE USED): 100%, 100%, 0%, not calculated; tumour outcome (control, treated, inhibition, significance) (Carcinogen: URETHANE, 51-79-6, Dose [Inhibitor]: 10% (VOL/VOL) IN DRINKING WATER CONCURRENTLY WITH CARCINOGEN FOR 12 WK (STUDY DURATION: 12 WK), Route [Inhibitor]: ORAL, Species: MOUSE, Strain/Sex: A/PH/FEMALE, Target Tissue: Type of Lesion: LUNG: ADENOMA, Dose [Carcinogen]: 200 PPM IN DRINKING WATER FOR 12 WK, Promoter: NONE USED): 100%, 80%, 20%, p<0.001; tumour outcome (control, treated, inhibition, significance) (Carcinogen: URETHANE, 51-79-6, Dose [Inhibitor]: 10% (VOL/VOL) IN DRINKING WATER CONCURRENTLY WITH CARCINOGEN FOR 12 WK (STUDY DURATION: 12 WK), Route [Inhibitor]: ORAL, Species: MOUSE, Strain/Sex: A/PH/FEMALE, Target Tissue: Type of Lesion: LUNG: ADENOMA, Dose [Carcinogen]: 500 PPM IN DRINKING WATER FOR 12 WK, Promoter: NONE USED): 100%, 100%, 0%, not calculated; tumour outcome (control, treated, inhibition, significance) (Carcinogen: URETHANE, 51-79-6, Dose [Inhibitor]: 10% (VOL/VOL) IN DRINKING WATER CONCURRENTLY WITH CARCINOGEN FOR 12 WK (STUDY DURATION: 12 WK), Route [Inhibitor]: ORAL, Species: MOUSE, Strain/Sex: A/PH/FEMALE, Target Tissue: Type of Lesion: LUNG: ADENOMA, Dose [Carcinogen]: 1000 PPM IN DRINKING WATER FOR 12 WK, Promoter: NONE USED): 100%, 100%, 0%, not calculated; tumour outcome (control, treated, inhibition, significance) (Carcinogen: URETHANE, 51-79-6, Dose [Inhibitor]: 20% (VOL/VOL) IN DRINKING WATER CONCURRENTLY WITH CARCINOGEN FOR 12 WK (STUDY DURATION: 12 WK), Route [Inhibitor]: ORAL, Species: MOUSE, Strain/Sex: A/PH/FEMALE, Target Tissue: Type of Lesion: LUNG: ADENOMA, Dose [Carcinogen]: 200 PPM IN DRINKING WATER FOR 12 WK, Promoter: NONE USED): 100%, 100%, 0%, not calculated; tumour outcome (control, treated, inhibition, significance) (Carcinogen: URETHANE, 51-79-6, Dose [Inhibitor]: 20% (VOL/VOL) IN DRINKING WATER CONCURRENTLY WITH CARCINOGEN FOR 12 WK (STUDY DURATION: 12 WK), Route [Inhibitor]: ORAL, Species: MOUSE, Strain/Sex: A/PH/FEMALE, Target Tissue: Type of Lesion: LUNG: ADENOMA, Dose [Carcinogen]: 500 PPM IN DRINKING WATER FOR 12 WK, Promoter: NONE USED): 100%, 100%, 0%, not calculated; tumour outcome (control, treated, inhibition, significance) (Carcinogen: URETHANE, 51-79-6, Dose [Inhibitor]: 20% (VOL/VOL) IN DRINKING WATER CONCURRENTLY WITH CARCINOGEN FOR 12 WK (STUDY DURATION: 12 WK), Route [Inhibitor]: ORAL, Species: MOUSE, Strain/Sex: A/PH/FEMALE, Target Tissue: Type of Lesion: LUNG: ADENOMA, Dose [Carcinogen]: 1000 PPM IN DRINKING WATER FOR 12 WK, Promoter: NONE USED): 100%, 100%, 0%, not calculated
